Measurements: article PMC6696413 (Molecules, 2019)
Where two headings read alike, the source gives them in different places.

What was measured:
Assay type in all cases: biochemical
acetylcholinesterase = acetylcholinesterase (Homo sapiens, UniProt P22303); experiment: biochemical
tyrosinase = experiment: Tyrosinase inhibitory activity experiment (L-tyrosine, 405 nm); conditions: 96-well plate, PBS, L-tyrosine substrate, 37 °C 30 min; kojic acid positive control
Method: In a 96-well plate, group A was added 80 μL of 0.1 mol/L PBS, 50 μL of solvent (solvent used to dissolve the sample: DMSO) and 50 μL of tyrosinase as a blank group (n = 2); group B was added 130 μL of 0.1 mol/L PBS and 50 μL of solvent as blank background group (n = 2); group C was added with 80 μL of 0.1 mol/L PBS, 50 μL of the sample (standard solution dissolved in DMSO to the concentration of 1.0 mg/mL) and 50 μL of tyrosinase as the experimental group (n = 2); group D were added 130 μL of 0.1 mol/L PBS and 50 μL of the sample as experimental background group (n = 2); finally, 20 μL of substrate (L-tyrosine) was added to each well to trigger the reaction, and the 96-well plate was further incubated at 37 °C.

α-glucosidase = experiment: α-Glucosidase inhibitory activity experiment (PNPG, 405 nm); conditions: 96-well plate, PBS pH 7.4, 37 °C, PNPG substrate; acarbose positive control
Method: In a 96-well plate, group A was added 20 μL of 0.1 mol/L PBS (phosphate buffered saline (pH 7.4)), 20 μL of the sample (standard solution dissolved in DMSO to the concentration of 1.0 mg/mL) and 20 μL of α-glucosidase as a sample group (n = 3); Group B was added 40 μL of 0.1 mol/L PBS and 20 μL of the sample as the control group (n = 3); Group C was added 40 μL 0.1 mol/L PBS and 20 μL α-glucosidase as blank group (n = 3); after incubation for 15 min at 37 °C, then 2.5 mmol/L PNPG glycoside was added to each well and incubated at 37 °C. The reaction was stopped by adding 80 μL of a 0.2 mol/L Na2CO3 solution to each well after 15 min.

[1] = 96-well plate, PBS, ACTI and DTNB, 37 °C 20 min, huperzine A positive control, read-out: Acetylcholinesterase inhibitory activity IC50 (converted)

Sequence of acetylcholinesterase (P22303 32-614, species assumed): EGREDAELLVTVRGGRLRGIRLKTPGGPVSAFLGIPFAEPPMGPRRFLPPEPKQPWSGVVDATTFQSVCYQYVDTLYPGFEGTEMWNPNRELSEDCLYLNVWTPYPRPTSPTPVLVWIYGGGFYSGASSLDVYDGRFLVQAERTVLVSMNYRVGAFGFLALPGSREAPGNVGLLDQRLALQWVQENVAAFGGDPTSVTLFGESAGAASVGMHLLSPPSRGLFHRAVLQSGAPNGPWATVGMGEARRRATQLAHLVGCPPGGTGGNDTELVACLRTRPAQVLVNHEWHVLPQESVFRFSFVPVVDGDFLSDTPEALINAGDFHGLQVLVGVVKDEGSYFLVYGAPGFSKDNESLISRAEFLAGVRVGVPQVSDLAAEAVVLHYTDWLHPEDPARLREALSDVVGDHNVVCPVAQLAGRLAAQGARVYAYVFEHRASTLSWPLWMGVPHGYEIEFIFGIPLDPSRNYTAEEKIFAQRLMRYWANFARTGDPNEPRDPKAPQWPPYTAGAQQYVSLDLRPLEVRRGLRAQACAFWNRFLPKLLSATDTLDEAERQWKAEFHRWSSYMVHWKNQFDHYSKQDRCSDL

Row | Compound | IC50 (acetylcholinesterase) [µM] | Tyrosinase inhibitory activity IC50 (tyrosinase) [µg/mL] | α-glucosidase activity inhibition IC50 (α-glucosidase) [µg/mL] | IC50 (acetylcholinesterase; [1]) [µM]
1 | O=c1cc(-c2ccc(O)c(O)c2)oc2cc(O)cc(O)c12 [Compound 1, luteolin] | 1660 | 1643.11 |  | 
2 | O=c1c(O)c(-c2ccc(O)cc2)oc2cc(O)cc(O)c12 [Compound 3, kaempferol] | 1760 |  |  | 
3 | OCC1OC(OC2C(CO)OC(OC3C(CO)OC(OC4(CO)OC(CO)C(O)C4O)C(O)C3O)C(O)C2O)C(O)C(O)C1O [Compound 12, O-α-D-glucopyranosyl-(1→4)-α-D-glucopyranosyl-(1→4)-α-D-glucopyranosyl-(1→2)-β-D-fructofuranoside] |  | 1750.08 | 444.88 | 761
4 | CC(C)[C@@H](C)/C=C/[C@@H](C)[C@H]1CC[C@@H]2[C@]1(C)CC[C@H]1[C@]23C=C[C@]2(C[C@@H](O)CC[C@]12C)OO3 [Compound 8, ergosterol peroxide] |  | 202.37 | 452.50 | 1170
5 | C[C@@H]1O[C@@H](OC[C@H]2O[C@@H](Oc3c(-c4ccc(O)c(O)c4)oc4cc(O)cc(O)c4c3=O)[C@H](O)[C@@H](O)[C@@H]2O)[C@H](O)[C@H](O)[C@H]1O [Compound 7, rutin] | 806 |  |  | 
6 | COC1OC(CNC2C(OC)OC(CO)C(O)C2O)C(O)C(O)C1O [Compound 11, α-D-Alt-p-OMe (N2-6) α-D-Gle-p-OMe] |  | 302.42 | 318.44 | 1400
7 | CC#CC#CC#CC#CC#CC(CO)O[C@@H]1O[C@H](CO)[C@@H](O)[C@H](O)[C@H]1O (stereo partly drawn) [Compound 10, 2-β-D-glucopyranosyloxy-1-hydroxytrideca-3,5,7,9,11-pentayne] |  |  | 492.11 | 1450
